The values that follow come from patent US12264173B2 (GILEAD SCIENCES, INC., priority 2020, dated 2025).

Structures are written as SMILES. pEC50: −log10 of the molar value. Read-outs that look alike come from different tables or passages of the source.

Holding throughout (type): cell-based
In one assay the test system is DENV2 replicon. Nature of the assay: DENV-2 Huh-7 Rep EC50 (replicon luminescence). The procedure: In 384 well plates (Greiner, Cat #781091), compounds were acoustically transferred at 200 nl per well in a 8 compound (4 replicates) or 40 compound dose response format (3 replicates). For all plates tested, Balapiravir, GS-5734 and NITD008 were included as positive inhibition controls alongside 0% inhibition, DMSO-only negative control wells. Following compound addition, Huh-7 cells containing the DENV2 replicon construct were harvested following standard cell culture procedures and were adjusted to a concentration of 1.25E5 cells/mL in cell culture media composed of cDMEM without genticin. 40 μL of the cell stock was then added to each well for a final cell density of 5,000 cells/well. Cell and compound mixtures were incubated at 37° C./5% CO2 for 48 hours. Prior to harvesting cells, EnduRen Live Cell Substrate (Promega, Cat #E6481) was prepared by suspending 3.4 mg into 100 uL of DMSO to generate a 60 mM stock solution. The stock solution was then diluted 1:200 in pre-warmed cDMEM and 10 uL of this diluted solution was added to each well of the 384 well plates. Plates were then centrifuged at 500 rpm briefly and were placed on a plate shaker for 2 min. Following mixing, plates were incubated at […] for 1.5 hours prior to measuring luminescence on an Envision luminometer.

In the next assay the test system is HRV16. As to the kind of experiment: HRV16 HeLa EC50 (cytopathic effect in H1-HeLa cells). The method, then: H1-HeLa cells, cultured in complete DMEM medium containing 10% heat-inactivated FBS and 1% Penicillin/Streptomycin, were seeded in 96 well plates at 3000 cells/well one day prior to compound dosing and infection. The antiviral activity of each compound was measured in triplicate. Compounds were added directly to the cell cultures in serial 3-fold dilutions using the HP300 digital dispenser (Hewlett Packard, Palo Alto, CA) immediately prior to infection. The plates were transferred to BSL-2 containment and the appropriate dilution of virus stock, previously determined by titration and prepared in cell culture media, was added to test plates containing cells and serially diluted compounds. Each plate included 6 wells of infected untreated cells and 6 wells of uninfected cells that served as 0% and 100% virus inhibition control, respectively. Following the infection, test plates were incubated for 96 h in a tissue culture incubator set to 33° C./5% CO2. Following incubation, the H1-HeLa cells were removed from incubation and allowed to equilibrate to 25° C. Cell viability was determined by removing 100 μL of culture medium and adding 100 μL of Cell-Titer Glo viability reagent. The mixtures were incubated on a shaker for 10 minutes at 25° C., and the luminescence signal was quantified on an Envision luminescence plate reader.
(In general: Cytopathic effects are the visible damage that an infection or toxin causes in cultured cells.)

In a further assay the test system is RSV A2. As to the kind of experiment: RSV NHBE EC50 (RSV A2 antiviral assay in NHBE cells). The note with it: Table 3, NHBE cells, RSV A2, 4 days, read-out: RSV NHBE EC50. An outline of the steps: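 Step 1: seed NHBE cells (7,500/well, BEGM) overnight. Step 2: add 3-fold diluted compound, DMSO 0.05%. Step 3: infect with RSV A2, 1×10^4.5 TCID/mL; incubate 4 days, 37° C. Step 4: CellTiter-Glo luminescence.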

Another assay concerns RSV strain A2. Nature of the assay: microbe, parasite or virus in culture. Particulars: Table 3, HEp-2 cells, RSV A2, 4 days, read-out: RSV HEp-2 EC50. An outline of the steps: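 Cytopathic-effect protection assay: HEp-2 cells (50,000/mL) infected with pre-titered RSV A2 onto 3-fold serial compound dilutions, incubated 4 days at 37° C. Cell viability read by CellTiter-Glo luminescence; percent inhibition derived against 0% and 100% virus-inhibition controls.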

[1] abbreviates: Dengue virus, DENV2, Huh-7, 48 h, read-out: DENV-2 REP Huh7 EC50.
Where [2] appears, read: 96 h, Table 3; H1-HeLa cells, 96 h; read-out: HRV16 HeLa EC50.
Setting [3] is: human respiratory syncytial virus, NHBE, 96 h.
[4] abbreviates: human respiratory syncytial virus, HEp-2, 96 h.
[5] abbreviates: Table 3, Huh-7 DENV2 replicon cells, 48 hours, read-out: DENV-2 REP Huh7 EC50.
Where [6] appears, read: Table 3; H1-HeLa cells, 96 h; read-out: HRV16 HeLa EC50.

For orientation: pEC50 means −log10 of the EC50, conventionally taken in molar units. In the case of `CCC(=O)O[C@H]1[C@H](c2ccc3c(N)ncnn23)O[C@](C#N)(COP(=O)(N[C@@H](C)C(=O)OC2COC2)Oc2ccccc2)[C@H]1OC(=O)CC` (mixture of isomers) [Example 174, (2R,3S,4S,5S)-5-(4-aminopyrrolo[2,1-f][1,2,4]triazin-7-yl)-2-cyano-2-((((((S)-1-(oxetan-3-yloxy)-1-oxopropan-2-yl)amino)(phenoxy)phosphoryl)oxy)methyl) tetrahydrofuran-3,4-diyl dipropionate], the pEC50 is 5.08 in the assay on DENV2 replicon (setting [1]), 7.01 in the assay with HRV16 (setting [2]), 7.70 with RSV A2 (setting [3]) and 7.00 with RSV strain A2 (setting [4]).
For the compound `CCCOC(=O)[C@H](C)NP(=O)(OC[C@@]1(C#N)O[C@@H](c2ccc3c(N)ncnn23)[C@H](OC(=O)CC)[C@@H]1OC(=O)CC)Oc1ccccc1` (mixture of isomers) [Example 187], the pEC50 with DENV2 replicon (setting [1]) was 5.23; in the assay on HRV16 (setting [2]), 7.06; in the assay on RSV A2 (setting [3]), 7.77; with RSV strain A2 (setting [4]), 7.62.
On to `COC(=O)[C@H](C)N[P@@](=O)(OC[C@@]1(C#N)O[C@@H](c2ccc3c(N)ncnn23)[C@H](OC(C)=O)[C@@H]1OC(C)=O)Oc1ccccc1` (single isomer, unassigned) [Example 130], for which the pEC50 in the assay with DENV2 replicon (setting [1]) was 4.68; in the assay with HRV16 (setting [2]) it was 5.75; in the assay on RSV A2 (setting [3]), 7.23; in the assay on RSV strain A2 (setting [4]) it was 6.70.
On the same counts, the results for `COC(=O)[C@H](C)N[P@](=O)(OC[C@@]1(C#N)O[C@@H](c2ccc3c(N)ncnn23)[C@H](OC(C)=O)[C@@H]1OC(C)=O)Oc1ccccc1` (single isomer, unassigned) [Example 131] are 4.72, 6.11, 7.33 and 6.99.
With `COC(=O)[C@H](C)N[P@@](=O)(OC[C@@]1(C#N)O[C@@H](c2ccc3c(N)ncnn23)[C@H](OC(=O)C(C)C)[C@@H]1OC(=O)C(C)C)Oc1ccccc1` (single isomer, unassigned) [Example 139], the pEC50 was 5.28 in the assay on DENV2 replicon (setting [1]), 7.01 in the assay on HRV16 (setting [2]), 8.10 with RSV A2 (setting [3]) and 7.41 in the assay on RSV strain A2 (setting [4]).
As to `CCC(=O)O[C@H]1[C@H](c2ccc3c(N)ncnn23)O[C@](C#N)(CO[P@](=O)(N[C@@H](C)C(=O)OC)Oc2ccccc2)[C@H]1OC(=O)CC` (single isomer, unassigned) [Example 142], the pEC50 in the assay on DENV2 replicon (setting [1]) is 4.95; with HRV16 (setting [2]), 6.45; with RSV A2 (setting [3]), 7.80; with RSV strain A2 (setting [4]), 7.03.
`CC(=O)O[C@H]1[C@H](c2ccc3c(N)ncnn23)O[C@](C#N)(COP(=O)(N[C@@H](C)C(=O)OC2CCOCC2)Oc2ccccc2)[C@H]1OC(C)=O` (single isomer, unassigned) [Example 165]: the pEC50 in the assay on DENV2 replicon (setting [5]) was below 4.00; in the assay on HRV16 (setting [6]), 5.72; with RSV A2, 6.78; in the assay on RSV strain A2, 6.39.
Consider `C[C@H](NP(=O)(OC[C@@]1(C#N)O[C@@H](c2ccc3c(N)ncnn23)[C@H](OC(=O)C(C)(C)C)[C@@H]1OC(=O)C(C)(C)C)Oc1ccccc1)C(=O)OC1CCOCC1` (single isomer, unassigned) [Example 173], for which the negative-log EC50 (pEC50) in the assay on DENV2 replicon (setting [5]) was 4.79; in the assay on HRV16 (setting [6]), 6.28; with RSV A2, 7.12; in the assay on RSV strain A2, 6.59.
With `CCC(=O)O[C@H]1[C@H](c2ccc3c(N)ncnn23)O[C@](C#N)(COP(=O)(N[C@@H](C)C(=O)OC2COC2)Oc2ccccc2)[C@H]1OC(=O)CC` (single isomer, unassigned) [Example 175], the pEC50 was 5.02 in the assay on DENV2 replicon (setting [5]), 7.07 in the assay on HRV16 (setting [6]), 7.77 with RSV A2 and 7.06 with RSV strain A2.
On to `CCC(=O)O[C@H]1[C@H](c2ccc3c(N)ncnn23)O[C@](C#N)(COP(=O)(N[C@@H](C)C(=O)OC2COC2)Oc2ccccc2)[C@H]1OC(=O)CC` (single isomer, unassigned) [Example 176], for which the pEC50 was 5.02 with DENV2 replicon (setting [5]), 6.85 with HRV16 (setting [6]), 7.80 in the assay on RSV A2 and 6.74 with RSV strain A2.
On to `CC(C)OC(=O)C(C)NP(=O)(OCC1(C#N)OC(c2ccc3c(N)ncnn23)C(OC(=O)C(C)C)C1OC(=O)C(C)C)Oc1ccc(C(=O)N(C)C)cc1` (single isomer, unassigned) [Example 178], for which the pEC50 in the assay on DENV2 replicon (setting [5]) was 4.27; with HRV16 (setting [6]), 5.97; with RSV A2, 6.79; with RSV strain A2 it was 6.20.
With `CC(C)OC(=O)C(C)NP(=O)(OCC1(C#N)OC(c2ccc3c(N)ncnn23)C(OC(=O)C(C)C)C1OC(=O)C(C)C)Oc1ccc(C(=O)N(C)C)cc1` (single isomer, unassigned) [Example 179], the pEC50 in the assay with DENV2 replicon (setting [5]) was 4.53; with HRV16 (setting [6]) it was 6.14; with RSV A2, 7.00; in the assay on RSV strain A2 it was 6.79.
Take `CC(C)C(=O)O[C@H]1[C@H](c2ccc3c(N)ncnn23)O[C@](C#N)(COP(=O)(N[C@@H](C)C(=O)OCC2CCOCC2)Oc2ccccc2)[C@H]1OC(=O)C(C)C` (single isomer, unassigned) [Example 182]: the pEC50 with DENV2 replicon (setting [5]) was 5.46; in the assay on HRV16 (setting [6]), 6.75; with RSV A2, 7.77; with RSV strain A2, 7.06.
As for `CCCOC(=O)[C@H](C)NP(=O)(OC[C@@]1(C#N)O[C@@H](c2ccc3c(N)ncnn23)[C@H](OC(=O)CC)[C@@H]1OC(=O)CC)Oc1ccccc1` (single isomer, unassigned) [Example 188], the pEC50 is 5.16 in the assay with DENV2 replicon (setting [5]), 6.99 in the assay on HRV16 (setting [6]), 7.55 in the assay with RSV A2 and 7.51 with RSV strain A2.
For `CCCOC(=O)[C@H](C)NP(=O)(OC[C@@]1(C#N)O[C@@H](c2ccc3c(N)ncnn23)[C@H](OC(=O)CC)[C@@H]1OC(=O)CC)Oc1ccccc1` (single isomer, unassigned) [Example 189], the pEC50 in the assay with DENV2 replicon (setting [5]) is 5.05; in the assay on HRV16 (setting [6]), 6.94; in the assay on RSV A2, 7.29; in the assay on RSV strain A2 it was 7.44.
On the same counts, the results for `CCCOC(=O)[C@H](C)NP(=O)(OC[C@@]1(C#N)O[C@@H](c2ccc3c(N)ncnn23)[C@H](OC(=O)C(C)C)[C@@H]1OC(=O)C(C)C)Oc1ccccc1` (single isomer, unassigned) [Example 191] are 5.57, 7.19, 8.10 and 7.64.
`CCC(CC)COC(=O)[C@H](C)NP(=O)(N[C@@H](C)C(=O)OC1CCCCC1)OC[C@@]1(C#N)O[C@@H](c2ccc3c(N)ncnn23)[C@H](OC(C)=O)[C@@H]1OC(C)=O` (stereo partly drawn) [Example 113, (2R,3S,4S,5S)-5-(4-Aminopyrrolo[2,1-f][1,2,4]triazin-7-yl)-2-cyano-2-((((((S)-1-(cyclohexyloxy)-1-oxopropan-2-yl)amino)(((S)-1-(2-ethylbutoxy)-1-oxopropan-2-yl)amino)phosphoryl)oxy)methyl)tetrahydrofuran-3,4-diyl diacetate]: the pEC50 is 4.50 with DENV2 replicon (Dengue virus, DENV2, Huh-7, 48 h, read-out: DENV-2 REP Huh7 EC50, Table 3, Huh-7 DENV2 replicon cells, 48 hours); 5.33 in the assay on HRV16 (96 h, read-out: HRV16 HeLa EC50, Table 3; H1-HeLa cells, 96 h); 5.71 in the assay with RSV strain A2 (setting [4]).
`CC(=O)O[C@H]1[C@H](c2ccc3c(N)ncnn23)O[C@](C#N)(CO[P@](=O)(N[C@@H](C)C(=O)OCC2CCN(CC(F)(F)F)CC2)Oc2ccccc2)[C@H]1OC(C)=O` [Example 120]: the pEC50 with DENV2 replicon (setting [5]) was 4.45; in the assay on HRV16 (setting [6]), 5.94; with RSV strain A2 it was 6.79.
